What was measured:
p23/Hsp90 interaction = test: Immunoprecipitation of p23 and Hsp90 in BT474 cells; type: cell-based, human; conditions: 5 μM, 24 hr
Experimental: Forward and reverse immunoprecipitation studies were performed in BT474 cells treated with DMAG analogs (5 μM) for 24 hr.

[1] = tested on: human pancreatic cancer cell lines (Panc-1, Panc-1/C5); test: MTT growth inhibition in human pancreatic cancer cell lines; type: cell-based
Experimental: (§1) The inventors also examined the ability of 19 BQAs to inhibit the growth of human pancreatic cancer cell lines (FIG. 16). For growth inhibition studies (MTT) cells were treated with drugs for 4 hr and then allowed to grow for 72 h. For biomarker studies MiaPaCa2 cells were treated with DMAG analogs (5 μM) for 24 hr. 19 BQAs inhibit the growth of human pancreatic cancer cell lines (FIG. 16A, 16B) and induce biomarkers of Hsp90 inhibition (FIG. 16C) using isogenic Panc-1 (NQO1 null) and Panc-1/C5 (NQO1 expressing) cell lines.

[2] = tested on: MDA468/NQ16 breast cancer cells; test: MTT growth inhibition in isogenic MDA468/NQ16 and MDA468 cells; type: cell-based, human; conditions: MDA468/NQ16, 4 hours treatment, 72 h growth, MTT
Experimental: The 19-substituted benzoquinone ansamycins were also tested in vitro for their ability to inhibit growth similar to DMAG in human breast cancer cells (FIG. 10). MDA468/NQ16 breast cancer cells were treated with 19-substituted DMAG analogs for 4 hours, after which drug-containing media was removed and cells were allowed to grow for an additional 72 h. Cell viability was determined using the MTT assay.
(§2) The ability of 19-substituted BQAs to induce growth inhibition was measured by MTT in isogenic MDA468 (null NQO1) and MDA468/NQ16 (high NQO1) cells. […] Biomarkers of Hsp90 inhibition (Raf-1, AKT degradation and Hsp70 induction) were more pronounced in MDA468/NQ16 cells compared to MDA468 cells following treatment with 19-substituted DMAG analogs.

cdc37/Hsp90 interaction = test: Immunoprecipitation of cdc37 with Hsp90 in BT474 and MDA468/NQ16 cells; type: cell-based, human; conditions: 5 μM, 24 hr
Experimental: Similarly, the association of cdc37 with hsp90 was examined in BT474 cells and MDA468/NQ16 cells by immunoprecipitation following treated with analogs (5 μM) for 24 hr. […] This finding is consistent with X ray data using purified Hsp90 showing that the larger 19-phenyl substituent causes greater conformational change in the Hsp90 structure than smaller 19-substituents (not shown). This also correlates with the differential effect of 19-phenyl and 19-methyl DMAG on clients chaperoned by cdc37 to Hsp90 which include Raf1, Akt, cdc2 and cdk4 (FIGS. 8,9,10).

[3] = tested on: MiaPaCa2 human pancreatic cancer cells; test: MTT growth inhibition in MiaPaCa2 cells; type: cell-based
Experimental: as §1

[4] = tested on: Hsp90 (Raf-1, AKT, CDK4, Her2 degradation, Hsp70 induction); test: Immunoblot biomarkers of Hsp90 inhibition in BT474 cells; type: cell-based, human; conditions: cell line not given
Experimental: (§3) The inventors extended the studies with 19-substituted DMAG analogs to include the Her2^+ human breast cancer cell line BT474 (FIG. 15). Growth inhibition (FIG. 15, left panel) was measured in BT474 cells following treatment with analogs for 4 hr. Growth inhibition (MTT) was performed 72 h following drug treatments. Biomarkers of Hsp90 inhibition, Raf-1, AKT, CDK4 and Her2 degradation as well as Hsp70 induction were measured by immunoblot analysis in human BT474 breast cancer cells following treatment with 19-substituted DMAG analogs (5 μM) for 24 hr ([…], left panel).

[5] = tested on: primary mouse hepatocytes; test: Hepatotoxicity in primary mouse hepatocytes (MTT); type: cell-based; conditions: 4 hr, confirmed by Trypan Blue and AST leakage
Experimental: The inventors next tested the effect of 19-substitution of BQAs on hepatotoxicity in isolated hepatocyte systems. Isolated primary mouse hepatocytes were grown on coated 96-well plates and exposed to BQAs for 4 h after which their survival was determined using the MTT assay.
As described above, a major obstacle in the development of BQA as drugs has been their ability to induce hepatotoxicity in preclinical studies. […] Toxicity was measured using MTT assay and confirmed using Trypan Blue and AST leakage. The data shown in FIG. 19 were generated using MTT analysis but similar readouts were obtained using either trypan blue exclusion or leakage of AST from hepatocytes.

[6] = tested on: Hsp90 (Raf-1, AKT degradation and Hsp70 induction); test: Biomarkers of Hsp90 inhibition in MDA468/NQ16 cells; type: cell-based, human; conditions: MDA468/NQ16 (high NQO1) cells
Experimental: as §2

[7] = tested on: BT474 human breast cancer cells; test: MTT growth inhibition in BT474 cells; type: cell-based; conditions: BT474, 4 hr treatment, MTT 72 h later
Experimental: as §3

Hsp90 = test: Biomarkers of Hsp90 inhibition in MiaPaCa2 cells; type: cell-based, human; conditions: 5 μM, 24 hr (FIG. 16C)
Experimental: as §1

SHSY-5Y cells = test: MTT growth inhibition assay in SHSY-5Y dopaminergic cells; type: cell-based, human; conditions: Homo sapiens, SH-SY5Y, read-out: SHSY-5Y IC50
Experimental: The 19-substituted benzoquinone ansamycins were also tested in vitro for their ability to reduce the toxicity of BQAs to SH-SY5Y cells a dopaminergic model system of relevance to neurodegenerative disease. Referring to FIG. 9, toxicity of BQAs in SH-SY-5Y cells was measured using trypan blue exclusion (panel A), MTT growth inhibition assay (panel B) and annexin V/PI staining for apoptosis (panel C). Cells in A and C were treated with BQAs (5 μM) for 16 h; cells in B were treated with BQAs for 4 h then allowed to grow in drug-free medium for 72 h. […] The combination of these two properties are likely to be important to the neuroprotective properties of the 19-substituted BQAs.
Growth inhibition assays (MTT) were conducted in human SHSY-5Y cells following a 4 hr treatment with GA or 19Me-GA. Cell were allowed to grow for 72 hrs following drug treatment. The 19-methyl substituted compounds in all series were minimally toxic (see FIG. 12 for data with geldanamycin, MTT assay, results are expressed as the mean±SD, n=3).

purified human NQO1 = purified human NQO1 (Homo sapiens, UniProt P15559); test: Reduction by purified recombinant human NQO1 (HPLC); type: biochemical; conditions: 50 μM, NADH 200 μM, rhNQO1 5 μg, 15 min; blocked by ES936
Experimental: To confirm bioreduction by NQO1 19Ph-GA was incubated with purified human NQO1 and analyzed by HPLC. […] Reactions with purified rhNQO1 (FIG. 14, panels A and B): 19Ph-GA (50 μM) was incubated with NADH (200 μM) in the absence and presence of purified rhNQO1 (5 μg). After 15 min reactions were stopped and analyzed by HPLC. Panel A; chromatograph overlays of 19Ph-GA, NADH (black) and 19Ph-GA, NADH and NQO1 (red). […] Panel B; chromatograph of 19Ph-GA, NADH, NQO1 and ES936. No 19Ph-GA hydroquinone formation is observed in the presence of the NQO1 inhibitor ES936.

yeast Hsp90 ATPase = yeast Hsp90 ATPase (Saccharomyces cerevisiae, UniProt P02829); test: Purified recombinant yeast Hsp90 ATPase activity; type: biochemical; conditions: in the absence and presence of NQO1
Experimental: In vitro testing was performed to verify that 19-substitutions prevent GSH conjugation of benzoquinone ansamycins (BQAs). Referring to FIG. 6, reactions were performed in 50 mM potassium phosphate buffer, pH 7.4 containing 50 μM benzoquinone ansamycin in the absence (solid bars) and presence (hatched bars) of 5 mM GSH. At the indicated times (GM series, 15 min; DMAG series, 3 hr; AAG series, 16 hr) the reactions were stopped and BQA concentrations were determined by HPLC. […] The 19-substituted benzoquinone ansamycins were also tested in vitro for inhibition of Hsp90. Referring to FIG. 7, purified recombinant yeast Hsp90 ATPase activity was measured in reactions with 19-substituted BQAs in the absence and presence of NADPH quinone oxidoreductase 1 (NQO1). Results are expressed as percent of DMSO control (mean±SD n=3).
The parent BQA's inhibited purified Hsp90 much more readily in the presence of NQO1 to generate the hydroquinone and this could be blocked by the inhibitor ES936. […] This could be blocked by the NQO1 inhibitor ES936.

Sequence of yeast Hsp90 ATPase (P02829 whole entry): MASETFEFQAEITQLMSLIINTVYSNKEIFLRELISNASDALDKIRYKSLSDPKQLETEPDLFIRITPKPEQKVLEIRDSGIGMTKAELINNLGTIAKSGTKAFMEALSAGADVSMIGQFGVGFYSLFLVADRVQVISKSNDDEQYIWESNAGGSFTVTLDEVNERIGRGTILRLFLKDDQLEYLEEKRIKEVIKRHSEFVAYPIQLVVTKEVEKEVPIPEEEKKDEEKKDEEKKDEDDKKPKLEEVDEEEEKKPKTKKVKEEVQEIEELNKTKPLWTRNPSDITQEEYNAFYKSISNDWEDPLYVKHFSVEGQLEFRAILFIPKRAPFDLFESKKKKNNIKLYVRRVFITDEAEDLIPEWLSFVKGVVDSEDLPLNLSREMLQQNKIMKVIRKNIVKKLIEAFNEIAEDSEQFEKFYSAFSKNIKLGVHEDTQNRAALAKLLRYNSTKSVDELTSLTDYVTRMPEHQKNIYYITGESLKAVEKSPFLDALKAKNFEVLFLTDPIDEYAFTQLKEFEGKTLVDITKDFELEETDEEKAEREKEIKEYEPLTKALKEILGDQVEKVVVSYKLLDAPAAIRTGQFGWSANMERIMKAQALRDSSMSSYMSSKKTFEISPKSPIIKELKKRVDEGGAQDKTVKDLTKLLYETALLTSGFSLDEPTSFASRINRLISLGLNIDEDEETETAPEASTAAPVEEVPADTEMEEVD
Sequence of purified human NQO1 (P15559 whole entry): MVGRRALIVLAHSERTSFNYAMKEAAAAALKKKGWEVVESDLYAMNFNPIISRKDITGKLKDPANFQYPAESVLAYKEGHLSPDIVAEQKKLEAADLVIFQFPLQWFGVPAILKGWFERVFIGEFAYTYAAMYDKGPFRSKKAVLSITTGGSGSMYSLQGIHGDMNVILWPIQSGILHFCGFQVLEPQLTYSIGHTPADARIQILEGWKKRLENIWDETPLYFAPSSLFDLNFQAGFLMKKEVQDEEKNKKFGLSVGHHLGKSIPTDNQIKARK

## CO[C@H]1/C=C\C=C(/C)C(=O)NC2=C(c3ccccc3)C(=O)C(NCCN(C)C)=C(C[C@@H](C)C[C@H](OC)[C@H](O)[C@@H](C)/C=C(\C)[C@@H]1OC(N)=O)C2=O [19Ph-DMAG, (4E,6Z,8S,9S,10E,12S,13R,14S,16R)-19-(2-(Dimethylamino)ethylamino)-13-hydroxy-8,14-dimethoxy-4,10,12,16-tetramethyl-3,20,22-trioxo-21-phenyl-2-azabicyclo[16.3.1]docosa-1 (21),4,6,10,18-pentaen-9-yl carbamate]
p23/Hsp90 interaction
  interaction of p23 and Hsp90: disrupted the interaction of p23 and Hsp90
[1]; FIG. 16B
  sensitivity of Panc-1/C5 (high NQO1) relative to NQO1-null Panc-1 cells: more sensitive
[1]; human pancreatic cancer cell lines, 4 hr treatment, 72 h growth, MTT (FIG. 16A)
  growth inhibitory activity: marked growth inhibitory activity
[2]
  potency at killing breast cancer cells relative to DMAG: greater potency at killing breast cancer cells than DMAG
cdc37/Hsp90 interaction
  interaction of cdc37 with Hsp90: disrupted the interaction of cdc37 with Hsp90
[3]; Homo sapiens, MIA PaCa-2, read-out: IC50 MiaPaCa2
  IC50: 3 ± 0.6 µM
[3]; MiaPaCa2 cells
  potency relative to 19Me-DMAG, growth inhibition: greater than 10 fold
[4]
  effects on clients chaperoned by cdc37 to Hsp90 (Raf1, Akt, cdc2, cdk4): marked
[5]
  hepatotoxicity: no toxicity was observed
[6]
  Hsp70 induction: equal Hsp70 induction compared to DMAG
  Raf-1 and AKT degradation: more pronounced Raf-1 and AKT degradation
[7]
  growth inhibition: induced growth inhibition
Hsp90
  induction of biomarkers of Hsp90 inhibition: pronounced induction of biomarkers of Hsp90 inhibition
SHSY-5Y cells
  IC50: > 20 µM

## COC1=C2C[C@@H](C)C[C@H](OC)[C@H](O)[C@@H](C)/C=C(\C)[C@H](OC(N)=O)[C@@H](OC)/C=C\C=C(/C)C(=O)NC(=C(c3ccccc3)C1=O)C2=O [19Ph-GA, 19-phenylgeldanamycin]
Purified human NQO1
  reduction to hydroquinone by NQO1: reduced to the more polar 19Ph-GA hydroquinone
SHSY-5Y cells
  IC50: > 10 µM

## C=CCNc1c(O)cc2c(O)c1C[C@@H](C)C[C@H](OC)[C@H](O)[C@@H](C)/C=C(\C)[C@H](OC(N)=O)[C@@H](OC)/C=C\C=C(/C)C(=O)N2 [17AAG hydroquinone]
Yeast Hsp90 ATPase
  inhibition of Hsp90 ATPase activity: inhibition of yeast Hsp90 ATPase activity
